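The concentration for 50% growth inhibition is given as GI50. Definition used: TGI = concentration required for complete inhibition of growth.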
Legend:
Assay in all cases: growth of human tumour cells (NCI), 384-well format
786-0 renal = test system: 786-0 renal
A498 renal = test system: A498 renal
A549 NSCLC = test system: A549 NSCLC
BT-549 breast = test system: BT-549 breast
CAKI-1 renal = test system: CAKI-1 renal
CCRF-CEM leukemia = test system: CCRF-CEM leukemia
COLO 205 colon = test system: COLO 205 colon
DU-145 prostate = test system: DU-145 prostate
HCC-2998 colon = test system: HCC-2998 colon
HCT-116 colon = test system: HCT-116 colon
HL-60(TB) leukemia = test system: HL-60(TB) leukemia
HOP-62 NSCLC = test system: HOP-62 NSCLC
HOP-92 NSCLC = test system: HOP-92 NSCLC
HS 578T breast = test system: HS 578T breast
IGROV1 ovarian = test system: IGROV1 ovarian
K-562 leukemia = test system: K-562 leukemia
KM12 colon = test system: KM12 colon
LOX IMVI melanoma = test system: LOX IMVI melanoma
M14 melanoma = test system: M14 melanoma
MALME-3M melanoma = test system: MALME-3M melanoma
MCF7 breast = test system: MCF7 breast
MDA-MB-231 breast = test system: MDA-MB-231 breast
MDA-MB-468 breast = test system: MDA-MB-468 breast
MOLT-4 leukemia = test system: MOLT-4 leukemia
NCI-H226 lung = test system: NCI-H226 lung
NCI-H23 lung = test system: NCI-H23 lung
NCI-H322M lung = test system: NCI-H322M lung
NCI-H460 NSCLC = test system: NCI-H460 NSCLC
OVCAR-3 ovarian = test system: OVCAR-3 ovarian
OVCAR-4 ovarian = test system: OVCAR-4 ovarian
OVCAR-5 ovarian = test system: OVCAR-5 ovarian
OVCAR-8 ovarian = test system: OVCAR-8 ovarian
RPMI-8226 leukemia = test system: RPMI-8226 leukemia
SF-268 CNS = test system: SF-268 CNS
SF-295 CNS = test system: SF-295 CNS
SF-539 CNS = test system: SF-539 CNS
SK-MEL-2 melanoma = test system: SK-MEL-2 melanoma
SK-MEL-28 melanoma = test system: SK-MEL-28 melanoma
SK-OV-3 ovarian = test system: SK-OV-3 ovarian
SNB-19 CNS = test system: SNB-19 CNS
SNB-75 CNS = test system: SNB-75 CNS
SR leukemia = test system: SR leukemia
SW-620 colon = test system: SW-620 colon
TK-10 renal = test system: TK-10 renal
U251 glioblastoma = test system: U251 glioblastoma
UACC-257 melanoma = test system: UACC-257 melanoma
UO-31 renal = test system: UO-31 renal

## CNC(=O)c1ccc(-c2cnc3ncc(Cc4ccc5ncccc5c4)n3n2)cc1F
786-0 renal
  GI50: > 87.7 µM
  TGI: > 100 µM
A498 renal
  GI50: > 100 µM
  TGI: > 100 µM
A549 NSCLC
  GI50: > 100 µM
  TGI: > 100 µM
BT-549 breast
  GI50: > 100 µM
  TGI: > 100 µM
CAKI-1 renal
  GI50: > 100 µM
  TGI: > 100 µM
CCRF-CEM leukemia
  GI50: > 100 µM
  TGI: > 100 µM
COLO 205 colon
  GI50: > 100 µM
  TGI: > 100 µM
DU-145 prostate
  GI50: > 100 µM
  TGI: > 100 µM
HCC-2998 colon
  GI50: > 100 µM
  TGI: > 100 µM
HCT-116 colon
  GI50: > 100 µM
  TGI: > 100 µM
HL-60(TB) leukemia
  GI50: > 100 µM
  TGI: > 100 µM
HOP-62 NSCLC
  GI50: > 100 µM
  TGI: > 100 µM
HOP-92 NSCLC
  GI50: > 75 µM
  TGI: > 100 µM
HS 578T breast
  GI50: > 100 µM
  TGI: > 100 µM
IGROV1 ovarian
  GI50: > 100 µM
  TGI: > 100 µM
K-562 leukemia
  GI50: > 100 µM
  TGI: > 100 µM
KM12 colon
  GI50: > 77.3 µM
  TGI: > 100 µM
LOX IMVI melanoma
  GI50: > 100 µM
  TGI: > 100 µM
M14 melanoma
  GI50: > 100 µM
  TGI: > 100 µM
MALME-3M melanoma
  GI50: > 100 µM
  TGI: > 100 µM
MCF7 breast
  GI50: > 100 µM
  TGI: > 100 µM
MDA-MB-231 breast
  GI50: > 100 µM
  TGI: > 100 µM
MDA-MB-468 breast
  GI50: > 100 µM
  TGI: > 100 µM
MOLT-4 leukemia
  GI50: > 100 µM
  TGI: > 100 µM
NCI-H226 lung
  GI50: > 100 µM
  TGI: > 100 µM
NCI-H23 lung
  GI50: > 100 µM
  TGI: > 100 µM
NCI-H322M lung
  GI50: > 100 µM
  TGI: > 100 µM
NCI-H460 NSCLC
  GI50: > 100 µM
  TGI: > 100 µM
OVCAR-3 ovarian
  GI50: > 100 µM
  TGI: > 100 µM
OVCAR-4 ovarian
  GI50: > 100 µM
  TGI: > 100 µM
OVCAR-5 ovarian
  GI50: > 100 µM
  TGI: > 100 µM
OVCAR-8 ovarian
  GI50: > 100 µM
  TGI: > 100 µM
RPMI-8226 leukemia
  GI50: > 100 µM
  TGI: > 100 µM
SF-268 CNS
  GI50: > 76.9 µM
  TGI: > 100 µM
SF-295 CNS
  GI50: > 72.6 µM
  TGI: > 100 µM
SF-539 CNS
  GI50: > 100 µM
  TGI: > 100 µM
SK-MEL-2 melanoma
  GI50: > 100 µM
  TGI: > 100 µM
SK-MEL-28 melanoma
  GI50: > 100 µM
  TGI: > 100 µM
SK-OV-3 ovarian
  GI50: > 100 µM
  TGI: > 100 µM
SNB-19 CNS
  GI50: > 100 µM
  TGI: > 100 µM
SNB-75 CNS
  GI50: > 61.6 µM
  TGI: > 94.5 µM
SR leukemia
  GI50: > 50.9 µM
  TGI: > 100 µM
SW-620 colon
  GI50: > 100 µM
  TGI: > 100 µM
TK-10 renal
  GI50: > 100 µM
  TGI: > 100 µM
U251 glioblastoma
  GI50: > 100 µM
  TGI: > 100 µM
UACC-257 melanoma
  GI50: > 100 µM
  TGI: > 100 µM
UO-31 renal
  GI50: > 100 µM
  TGI: > 100 µM

Reference: PubChem BioAssay (NCI)
